Where a name gives a salt, the structure may show the parent alone. Read-outs that look alike come from different tables or passages of the source.
Tested on: panel of 240 cancer cell lines
Assay: Proliferation in a broad panel of 240 cancer cell lines, 2D culture (Eurofins Panlabs Oncopanel)
Type: cell-based
Method: Cell lines used in these experiments were obtained from the following sources and were cultured according to conditions specified by the respective cell banks. […] The cell lines listed above were tested for mycoplasma and were negative. Cells were authenticated by STR method or vendor protocols. All 313 cell lines in the CRIPSR pooled screen were purchased from commercial vendors and were STR authenticated and mycoplasma negative. A broad panel of cancer cell lines was screened in the Eurofins Oncopanel. All cells in this panel were mycoplasma negative and STR verified.

Measured: IC50

NC1CCC(S(=O)(=O)N2C3CCC2CC(NC(=O)c2cc(C4CC4)on2)C3)CC1 [EPZ028862, N-((1R,3R,5S)-8-((1r,4R)-4-aminocyclohexylsulfonyl)-8-aza-bicyclo[3.2.1]octan-3-yl)-5-cyclopropylisoxazole-3-carboxamide hydrochloride]
> 25 µM: Homo sapiens, LS174T, LS-174T, Colon/GI, read-out: IC50 | Homo sapiens, LS-1034, LS1034, Colon/GI, read-out: IC50 | Homo sapiens, MC-IXC, CNS, read-out: IC50 | Homo sapiens, MCF7, MCF7, Breast, read-out: IC50 | Homo sapiens, MDA-MB-231, MDA MB 231, Breast, read-out: IC50 | Homo sapiens, MDA-MB-436, MDA-MB-436, Breast, read-out: IC50 | Homo sapiens, MDA-MB-453, MDA MB 453, Breast, read-out: IC50 | Homo sapiens, MDA-MB-468, MDA MB 468, Breast, read-out: IC50 | Homo sapiens, MEG-01, MEG01, Haematopoietic and lymphoid, read-out: IC50 | Homo sapiens, MES-SA, Soft Tissue, read-out: IC50 | Homo sapiens, MG-63, MG-63, Soft Tissue, read-out: IC50 | Homo sapiens, MHH-PREB-1, MHH-PREB-1, Haematopoietic and lymphoid, read-out: IC50 | Homo sapiens, MIA PaCa-2, Mia PaCa-2, Pancreas, read-out: IC50 | Homo sapiens, MOLT-3, MOLT-3, Haematopoietic and lymphoid, read-out: IC50 | Homo sapiens, MOLT-16, MOLT-16, Haematopoietic and lymphoid, read-out: IC50 | Homo sapiens, MV4-11, MV-4-11, Haematopoietic and lymphoid, read-out: IC50 | Homo sapiens, Malme-3M, MALME3M, Skin, read-out: IC50 | Homo sapiens, MeWo, Skin, read-out: IC50 | Homo sapiens, NALM-6, NALM-6, Haematopoietic and lymphoid, read-out: IC50 | Homo sapiens, NCI-H69, NCI-H69, Lung, read-out: IC50 | Homo sapiens, NCI-H292, NCI-H292, Lung, read-out: IC50 | Homo sapiens, NCI-H295R, Endocrine, read-out: IC50 | Homo sapiens, NCI-H441, NCIH441, Lung, read-out: IC50 | Homo sapiens, NCI-H446, NCIH446, Lung, read-out: IC50 | Homo sapiens, NCI-H460, NCI-H460, Lung, read-out: IC50 | Homo sapiens, NCI-H508, NCI-H508, Colon/GI, read-out: IC50 | Homo sapiens, NCI-H520, NCI-H520, Lung, read-out: IC50 | Homo sapiens, NCI-H596, NCI-H596, Lung, read-out: IC50 | Homo sapiens, NCI-H661, NCI-H661, Lung, read-out: IC50 | Homo sapiens, NCI-H747, NCI-H747, Colon/GI, read-out: IC50 | Homo sapiens, OE19, OE19, Head and Neck, read-out: IC50 | Homo sapiens, OE33, OE33, Head and Neck, read-out: IC50 | Homo sapiens, OVCAR-3, OVCAR3, Female GU, read-out: IC50 | Homo sapiens, PANC-1, PANC-1, Pancreas, read-out: IC50 | Homo sapiens, RKOE6, RKOE6, Colon/GI, read-out: IC50 | Homo sapiens, RL95-2, RL95-2, Female GU, read-out: IC50 | Homo sapiens, RPMI-6666, RPMI 6666, Haematopoietic and lymphoid, read-out: IC50 | Homo sapiens, RPMI-7951, RPMI-7951, Skin, read-out: IC50 | Homo sapiens, RPMI-8226, RPMI 8226, Haematopoietic and lymphoid, read-out: IC50 | Homo sapiens, Raji, Haematopoietic and lymphoid, read-out: IC50 | Homo sapiens, Ramos, Ramos (RA 1), Haematopoietic and lymphoid, read-out: IC50 | Homo sapiens, SAOS-2, SaOS2, Soft Tissue, read-out: IC50 | Homo sapiens, SCC-4, SCC-4, Head and Neck, read-out: IC50 | Homo sapiens, SCC-9, SCC-9, Head and Neck, read-out: IC50 | Homo sapiens, SCC-25, SCC-25, Head and Neck, read-out: IC50 | Homo sapiens, SCaBER, Bladder, read-out: IC50 | Homo sapiens, SHP77, SHP-77, Lung, read-out: IC50 | Homo sapiens, SJRH30, SJRH30, Soft Tissue, read-out: IC50 | Homo sapiens, SJSA-1, SJSA1, Soft Tissue, read-out: IC50 | Homo sapiens, SK-BR-3, SK-BR-3, Breast, read-out: IC50 | Homo sapiens, SK-LMS-1, SK-LMS-1, Soft Tissue, read-out: IC50 | Homo sapiens, SK-MEL3, SK-MEL-3, Skin, read-out: IC50 | Homo sapiens, SK-MEL-1, SK-MEL-1, Skin, read-out: IC50 | Homo sapiens, SK-MEL-28, SK-MEL-28, Skin, read-out: IC50 | Homo sapiens, SK-MES-1, SKMES1, Lung, read-out: IC50 | Homo sapiens, SK-N-AS, CNS, read-out: IC50 | Homo sapiens, SK-N-DZ, CNS, read-out: IC50 | Homo sapiens, SK-N-FI, CNS, read-out: IC50 | Homo sapiens, SK-NEP-1, SK-NEP-1, Kidney, read-out: IC50 | Homo sapiens, SK-OV-3, SKOV3, Female GU, read-out: IC50 | Homo sapiens, SK-UT-1, SK-UT-1, Soft Tissue, read-out: IC50 | Homo sapiens, SNB-19, SNB-19, CNS, read-out: IC50 | Homo sapiens, SNU1, SNU-1, Colon/GI, read-out: IC50 | Homo sapiens, SNU-5, SNU-5, Colon/GI, read-out: IC50 | Homo sapiens, SNU-16, SNU-16, Colon/GI, read-out: IC50 | Homo sapiens, SNU-423, SNU-423, Liver, read-out: IC50 | Homo sapiens, ST486, ST486, Haematopoietic and lymphoid, read-out: IC50 | Homo sapiens, SU.86.86, SU.86.86, Pancreas, read-out: IC50 | Homo sapiens, SW13, SW-13, Endocrine, read-out: IC50 | Homo sapiens, SW48, SW48, Colon/GI, read-out: IC50 | Homo sapiens, SW480, SW480, Colon/GI, read-out: IC50 | Homo sapiens, SW684, SW684, Soft Tissue, read-out: IC50 | Homo sapiens, SW837, SW837, Colon/GI, read-out: IC50 | Homo sapiens, SW872, SW872, Soft Tissue, read-out: IC50 | Homo sapiens, SW900, SW900, Lung, read-out: IC50 | Homo sapiens, SW948, SW948, Colon/GI, read-out: IC50 | Homo sapiens, SW 954, SW954, Female GU, read-out: IC50 | Homo sapiens, SW 962, SW962, Female GU, read-out: IC50 | Homo sapiens, SW982, SW982, Soft Tissue, read-out: IC50 | Homo sapiens, SW1088, SW1088, CNS, read-out: IC50 | Homo sapiens, SW1353, SW1353, Soft Tissue, read-out: IC50 | Homo sapiens, SW1417, SW1417, Colon/GI, read-out: IC50 | Homo sapiens, SW1463, SW1463, Colon/GI, read-out: IC50 | Homo sapiens, SW1783, SW1783, CNS, read-out: IC50 | Homo sapiens, SW-403, SW403, Colon/GI, read-out: IC50 | Homo sapiens, SW-620, SW620, Colon/GI, read-out: IC50 | Homo sapiens, SiHa, Female GU, read-out: IC50 | Homo sapiens, T47D, Breast, read-out: IC50 | Homo sapiens, T98G, CNS, read-out: IC50 | Homo sapiens, TCC-SUP, TCCSUP, Bladder, read-out: IC50 | Homo sapiens, THP-1, Thp1, Haematopoietic and lymphoid, read-out: IC50 | Homo sapiens, U2OS, Soft Tissue, read-out: IC50 | Homo sapiens, U138-MG, U-138MG, CNS, read-out: IC50 | Homo sapiens, U-87 MG, CNS, read-out: IC50 | Homo sapiens, UMUC3, UM-UC-3, Bladder, read-out: IC50 | Homo sapiens, WI-38, Wi38, Lung, read-out: IC50 | Homo sapiens, WiDr, Colon/GI, read-out: IC50 | Homo sapiens, YAPC, Pancreas, read-out: IC50 | Hs766T, Hs 766T, Pancreas, read-out: IC50 | J82, Bladder, read-out: IC50 | JAR, Female GU, read-out: IC50 | KHOS-240S, Soft Tissue, read-out: IC50 | KLE, Female GU, read-out: IC50 | KPL-1, KPL-1, Breast, read-out: IC50 | MT-3, Breast, read-out: IC50 | MX1, Haematopoietic and lymphoid, read-out: IC50 | OCUG-1, OCUG-1, Liver, read-out: IC50 | OE21, OE21, Head and Neck, read-out: IC50 | PC-3, Prostate, read-out: IC50 | RD, Soft Tissue, read-out: IC50 | RKO, Colon/GI, read-out: IC50 | RKOAS451, RKO-AS45-1, Colon/GI, read-out: IC50 | SH-4, Skin, read-out: IC50 | SKO-007, SKO-007, Haematopoietic and lymphoid, read-out: IC50 | SR, Haematopoietic and lymphoid, read-out: IC50 | SW579, SW579, Endocrine, read-out: IC50 | T24, Bladder, read-out: IC50 | TE 381.T, Soft Tissue, read-out: IC50 | U266B1, Haematopoietic and lymphoid, read-out: IC50 | Y79, Eye-retinoblastoma, read-out: IC50 | read-out: anti-proliferative IC50 across the panel of 240 cancer cell lines, 2D culture
